Structures are written as SMILES. pIC50: −log10 of the molar value. “And” between values parts separate entries of the source, which are not always exact repeats. Identical values can stand only once. Like-named read-outs stand apart in the source and are kept apart here. A value given as a limit tells only on which side of the number the result lay.

One test concerns the target human Bub1 (Homo sapiens (Human), UniProt O43683). The experiment in a line: Bub1 high ATP kinase assay (TR-FRET). Format: biochemical. The text has this:
Bub1-inhibitory activity of compounds of the present invention at a high ATP concentration was quantified employing the Bub1 TR-FRET high ATP kinase assay as described in the following paragraphs.
N-terminally His6-tagged recombinant catalytic domain of human Bub1 (amino acids 704-1085), expressed in insect cells (Hi5) and purified by Ni-NTA affinity chromatography and subsequent size exclusion chromatography, was used as enzyme.
(In TR-FRET formats the signal depends on donor and acceptor labels being close together.)

Another test concerns Ba/F3-EGFR-insSVD. The experiment in a line: Ba/F3 cell survival assay, EGFR-insSVD. Format: cell-based. As for the experimental part: (§1) 293T cells from ATCC were transfected with pBABEpuro expression constructs for WT EGFR or EGFR-insSVD and pCL-Eco packaging vector using Fugene-6 transfection reagent from Promega. Plates were incubated at 37° C. for 48 h. Retrovirus was harvested by filtering the media supernatant through a 0.45 μm filter.
(§2) Ba/F3 cells purchased from DSMZ were grown in RPMI+10% FBS+10 ng/mL IL-3 and infected with filtered retroviral supernatant at a 1:2 dilution. Polybrene was added to a concentration of 8 μg/mL, plates were spun for 90 min, and incubated overnight at 37° C. 2 μg/mL puromycin was added to the infected cells 24 h after infection and cells were continually grown in the presence of puromycin and 10 ng/mL IL-3. Following stably expressing Ba/F3 cell lines were generated: Ba/F3-EGFR-WT, Ba/F3-EGFR-insSVD, (Ba/F3-vector-control).
For cell survival assays, Ba/F3 cells were grown to a density of 1-2 million cells per mL, spun down and resuspended in media without IL-3, and replated at a concentration 200,000-500,000 cells per mL. The cells ectopically expressing WT EGFR or EGFR-insSVD were plated with 10 ng/mL Millipore Culture grade EGF. The cells ectopically expressing pBABEpuro empty vector were plated with 10 ng/mL IL-3.
2 days later, cells were plated in 50 μL in a 384 well plate at a concentration of 4000 cells per well for cells assayed in the absence of IL-3 and 2000 cells per well for cells assayed in the presence of IL-3. 100 nL of compound was added to each well using a 100 nL pin head, and plates were incubated at 37° C. for 48 h.
Cell viability was measured by adding 20 μL of Cell Titer-Glo Luminescent Cell Viability Reagent diluted 1:3 in PBS. Plates were sealed with Perkin Elmer Top-Seal, inverted several times to mix, and immediately centrifuged at 1000 rpm for 2 min. Plates were incubated in low light conditions for 8-10 min and luminescence was measured.

Another test relates to Ba/F3-EGFR-WT. The experiment in a line: Ba/F3 cell survival assay, WT EGFR. Format: cell-based. How it is done:
as §1, §2
The cells ectopically expressing WT EGFR or EGFR-insSVD were plated with 10 ng/mL Millipore Culture grade EGF. The cells ectopically expressing pBABEpuro empty vector were plated with 10 ng/mL IL-3.
100 nL of compound was added to each well using a 100 nL pin head, and plates were incubated at 37° C. for 48 h.
Cell viability was measured by adding 20 μL of Cell Titer-Glo Luminescent Cell Viability Reagent diluted 1:3 in PBS. Plates were sealed with Perkin Elmer Top-Seal, inverted several times to mix, and immediately centrifuged at 1000 rpm for 2 min.

The mark [1] stands for this setting: Bub1 high ATP (2 mM) IC50, 2 mM ATP.
Setting [2] is: read-out: BA/F3 (insSVD) IC50, cell viability, Cell Titer-Glo, 48 h, with 10 ng/mL EGF, without IL-3.
[3] abbreviates: read-out: BA/F3 (wild type) IC50, cell viability, Cell Titer-Glo, 48 h, with 10 ng/mL EGF, without IL-3.
The mark [4] stands for this setting: read-out: Bub1 high ATP (2 mM) IC50, 2 mM ATP.
The mark [5] stands for this setting: Mus musculus, BaF3, 48 h, read-out: BA/F3 (insSVD) IC50, cell viability, Cell Titer-Glo, 48 h, with 10 ng/mL EGF, without IL-3.
The mark [6] stands for this setting: Mus musculus, BaF3, 48 h, read-out: BA/F3 (wild type) IC50, cell viability, Cell Titer-Glo, 48 h, with 10 ng/mL EGF, without IL-3.

Sequence of human Bub1 (O43683 704-1085): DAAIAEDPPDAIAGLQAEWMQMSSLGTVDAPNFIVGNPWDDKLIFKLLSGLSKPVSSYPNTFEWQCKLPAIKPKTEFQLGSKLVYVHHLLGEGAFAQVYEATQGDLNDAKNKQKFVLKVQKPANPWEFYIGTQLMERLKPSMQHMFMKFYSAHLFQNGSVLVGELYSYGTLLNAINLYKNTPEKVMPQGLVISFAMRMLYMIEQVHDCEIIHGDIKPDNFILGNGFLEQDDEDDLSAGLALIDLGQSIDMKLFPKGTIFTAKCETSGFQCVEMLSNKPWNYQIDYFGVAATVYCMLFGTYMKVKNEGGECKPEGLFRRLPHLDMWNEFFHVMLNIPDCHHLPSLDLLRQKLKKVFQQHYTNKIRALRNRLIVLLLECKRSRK

On to `Cc1c(Cl)cc(F)cc1Nc1c(-c2ccncc2OCC2CCO2)[nH]c2c1C(=O)NCC2` (single isomer, unassigned) [Example 41, 3-(3-chloro-5-fluoro-2-methylanilino)-2-{3-[(oxetan-2-yl)methoxy]pyridin-4-yl}-1,5,6,7-tetrahydro-4H-pyrrolo[3,2-c]pyridin-4-one], for which the pIC50 on human Bub1 (setting [1]) is 5.20; in the test on Ba/F3-EGFR-insSVD (setting [2]), 6.46; with Ba/F3-EGFR-WT (setting [3]), 5.75.
`CC1(C)COC1COc1cnccc1-c1[nH]c2c(c1Nc1cccc(Cl)c1OC(F)F)C(=O)NCC2` (single isomer, unassigned) [Example 72, 3-[3-chloro-2-(difluoromethoxy)anilino]-2-(3-{[3,3-dimethyloxetan-2-yl]methoxy}pyridin-4-yl)-1,5,6,7-tetrahydro-4H-pyrrolo[3,2-c]pyridin-4-one]: the values for the pIC50 against human Bub1 (setting [1]), in the test on Ba/F3-EGFR-insSVD (setting [2]) and in the test with Ba/F3-EGFR-WT (setting [3]) were under 4.70, 6.36 and 5.56, respectively.
For the compound `O=C1NCCc2[nH]c(-c3ccncc3OCCC3CCO3)c(Nc3cccc(Cl)c3Cl)c21` (single isomer, unassigned) [Example 64, 3-(2,3-dichloroanilino)-2-(3-{2-[oxetan-2-yl]ethoxy}pyridin-4-yl)-1,5,6,7-tetrahydro-4H-pyrrolo[3,2-c]pyridin-4-one], the pIC50 against human Bub1 (setting [1]) was 5.27; with Ba/F3-EGFR-insSVD (setting [2]), 7.64; in the test on Ba/F3-EGFR-WT (setting [3]), 6.14.
Consider `COc1c(Cl)cccc1Nc1c(-c2ccncc2OCC2(C)CCO2)[nH]c2c1C(=O)NCC2` (racemic) [Example 46, 3-(3-chloro-2-methoxyanilino)-2-{3-[(2-methyloxetan-2-yl)methoxy]pyridin-4-yl}-1,5,6,7-tetrahydro-4H-pyrrolo[3,2-c]pyridin-4-one], for which the pIC50 at human Bub1 (setting [4]) is 4.99; with Ba/F3-EGFR-insSVD (setting [5]), 7.17; in the test on Ba/F3-EGFR-WT (setting [6]), 6.02.
For `O=C1NCCc2[nH]c(-c3ccncc3OCC3CCO3)c(Nc3cccc(Cl)c3Cl)c21` (racemic) [Example 10, 3-(2,3-dichloroanilino)-2-{3-[(oxetan-2-yl)methoxy]pyridin-4-yl}-1,5,6,7-tetrahydro-4H-pyrrolo[3,2-c]pyridin-4-one], the pIC50 is 4.86 at human Bub1 (setting [4]), 7.18 in the test with Ba/F3-EGFR-insSVD (setting [5]) and 5.98 with Ba/F3-EGFR-WT (setting [6]).
With `COc1c(F)cccc1Nc1c(-c2ccncc2OCC2OCC2(C)C)[nH]c2c1C(=O)NCC2` (single isomer, unassigned; (-)) [Example 53, (−)-2-{3-[(3,3-dimethyloxetan-2-yl)methoxy]pyridin-4-yl}-3-(3-fluoro-2-methoxyanilino)-1,5,6,7-tetrahydro-4H-pyrrolo[3,2-c]pyridin-4-one], the pIC50 was under 4.70 on human Bub1 (setting [4]) and 5.95 with Ba/F3-EGFR-WT (setting [3]).
For `CC1(C)COC1COc1cnccc1-c1[nH]c2c(c1Nc1cccc(Cl)c1OC(F)F)C(=O)NCC2` (racemic) [Example 71, 3-[3-chloro-2-(difluoromethoxy)anilino]-2-(3-{[3,3-dimethyloxetan-2-yl]methoxy}pyridin-4-yl)-1,5,6,7-tetrahydro-4H-pyrrolo[3,2-c]pyridin-4-one], the pIC50 is under 4.70 on human Bub1 (setting [4]) and 6.91 with Ba/F3-EGFR-insSVD (setting [5]).
On to `CC1(COc2cnccc2-c2[nH]c3c(c2Nc2cccc(Cl)c2OC(F)F)C(=O)NCC3)CCO1` (racemic) [Example 74, 3-[3-chloro-2-(difluoromethoxy)anilino]-2-(3-{[2-methyloxetan-2-yl]methoxy}pyridin-4-yl)-1,5,6,7-tetrahydro-4H-pyrrolo[3,2-c]pyridin-4-one], for which the pIC50 on human Bub1 (setting [4]) was under 4.70; in the test on Ba/F3-EGFR-insSVD (setting [5]), 6.87; in the test with Ba/F3-EGFR-WT (setting [6]), 5.90.
For the compound `COc1c(Br)cccc1Nc1c(-c2ccncc2OCC2CCO2)[nH]c2c1C(=O)NCC2` (single isomer, unassigned) [Example 35, 3-(3-bromo-2-methoxyanilino)-2-{3-[(oxetan-2-yl)methoxy]pyridin-4-yl}-1,5,6,7-tetrahydro-4H-pyrrolo[3,2-c]pyridin-4-one], the pIC50 is 5.30 on human Bub1 (setting [1]), 6.69 in the test with Ba/F3-EGFR-insSVD (setting [2]) and 5.87 in the test on Ba/F3-EGFR-WT (setting [3]).
Take `COc1c(F)cccc1Nc1c(-c2ccncc2OC[C@@H]2CCO2)[nH]c2c1C(=O)NCC2` [Example 5, 3-(3-fluoro-2-methoxyanilino)-2-(3-{[(2S)-oxetan-2-yl]methoxy}pyridin-4-yl)-1,5,6,7-tetrahydro-4H-pyrrolo[3,2-c]pyridin-4-one]: the pIC50 is under 4.70 on human Bub1 (setting [4]), 7.65 in the test with Ba/F3-EGFR-insSVD (setting [5]) and 6.24 with Ba/F3-EGFR-WT (setting [6]).
Take `COc1c(F)cccc1Nc1c(-c2ccncc2OCC2(C)CCO2)[nH]c2c1C(=O)NCC2` (single isomer, unassigned; (-)) [Example 20, (−)-3-(3-fluoro-2-methoxyanilino)-2-{3-[(2-methyloxetan-2-yl)methoxy]pyridin-4-yl}-1,5,6,7-tetrahydro-4H-pyrrolo[3,2-c]pyridin-4-one]: the pIC50 was 4.84 on human Bub1 (setting [1]); 4.93 and < 4.70 on human Bub1 (setting [4]).
`Cc1c(Cl)cc(F)cc1Nc1c(-c2ccncc2OCC2CCO2)[nH]c2c1C(=O)NCC2` (single isomer, unassigned) [Example 42, 3-(3-chloro-5-fluoro-2-methylanilino)-2-{3-[(oxetan-2-yl)methoxy]pyridin-4-yl}-1,5,6,7-tetrahydro-4H-pyrrolo[3,2-c]pyridin-4-one]: the pIC50 at human Bub1 (setting [1]) was under 4.70; in the test with Ba/F3-EGFR-insSVD (setting [2]), 7.14; in the test with Ba/F3-EGFR-WT (setting [3]), 6.26.
Consider `O=C1NCCc2[nH]c(-c3ccncc3OCC3CCO3)c(Nc3cccc4c3CCC4)c21` (stereo not drawn) [Example 36, 3-[(2,3-dihydro-1H-inden-4-yl)amino]-2-{3-[(oxetan-2-yl)methoxy]pyridin-4-yl}-1,5,6,7-tetrahydro-4H-pyrrolo[3,2-c]pyridin-4-one], for which the pIC50 on human Bub1 (setting [4]) was under 4.70; in the test on Ba/F3-EGFR-insSVD (setting [5]), 6.42.
For `COc1c(Cl)cccc1Nc1c(-c2ccncc2OC[C@H]2CCO2)[nH]c2c1C(=O)NCC2` [Example 3, 3-(3-chloro-2-methoxyanilino)-2-(3-{[(2R)-oxetan-2-yl]methoxy}pyridin-4-yl)-1,5,6,7-tetrahydro-4H-pyrrolo[3,2-c]pyridin-4-one], the results for the pIC50 on human Bub1 (setting [4]) and with Ba/F3-EGFR-insSVD (setting [5]) were 5.35 and 6.87, respectively.
Take `CC1(COc2cnccc2-c2[nH]c3c(c2Nc2cccc(Cl)c2OC(F)F)C(=O)NCC3)CCO1` (single isomer, unassigned) [Example 75, 3-[3-chloro-2-(difluoromethoxy)anilino]-2-(3-{[2-methyloxetan-2-yl]methoxy}pyridin-4-yl)-1,5,6,7-tetrahydro-4H-pyrrolo[3,2-c]pyridin-4-one]: the values for the pIC50 against human Bub1 (setting [1]) and in the test with Ba/F3-EGFR-insSVD (setting [5]) were under 4.70 and 6.52, respectively.
Regarding `COc1c(F)cccc1Nc1c(-c2ccncc2OC[C@H]2CCO2)[nH]c2c1C(=O)NCC2` [Example 6, 3-(3-fluoro-2-methoxyanilino)-2-(3-{[(2R)-oxetan-2-yl]methoxy}pyridin-4-yl)-1,5,6,7-tetrahydro-4H-pyrrolo[3,2-c]pyridin-4-one], the values for the pIC50 at human Bub1 (setting [4]) and in the test on Ba/F3-EGFR-insSVD (setting [5]) were under 4.88 and 6.56, respectively.
For the compound `COc1c(Cl)cc(F)cc1Nc1c(-c2ccncc2OCC2CCO2)[nH]c2c1C(=O)NCC2` (single isomer, unassigned) [Example 67, 3-(3-chloro-5-fluoro-2-methoxyanilino)-2-(3-{[oxetan-2-yl]methoxy}pyridin-4-yl)-1,5,6,7-tetrahydro-4H-pyrrolo[3,2-c]pyridin-4-one], the pIC50 at human Bub1 (setting [4]) is under 4.70; in the test on Ba/F3-EGFR-WT (setting [3]), 5.25.
Consider `COc1c(Cl)cccc1Nc1c(-c2ccncc2OCC2CCO2)[nH]c2c1C(=O)NCC2` (stereo not drawn) [Example 1, 3-(3-chlor-2-methoxyanilino)-2-[3-(oxetan-2-ylmethoxy)pyridin-4-yl]-1,5,6,7-tetrahydro-4H-pyrrolo[3,2-c]pyridin-4-on], for which the pIC50 in the test on Ba/F3-EGFR-insSVD (setting [5]) was 7.60; in the test on Ba/F3-EGFR-WT (setting [6]), 6.10.

These data come from patent US20240307362A1 (priority 2019, published 2024).
